In patent publication US11203586B2, “Iridinesulfonamide compound and use method thereof” (Chia Tai Tianqing Pharmaceutical Group Co., Ltd., priority 2016, dated 2021):

Columns and labels:
[1] = biological target: IDH1 (R132C) (Homo sapiens (Human), UniProt O75874, R132C); assay: Enzyme assay, NADPH decrease detected with Diaphorase/Resazurin; assay type: biochemical; settings: 40 nM enzyme, 20 μM NADPH, incubated at 23° C. for 16 hours before α-KG; 12 concentrations
Excerpt: (§1) Resazurin is a traditional redox dye, and after a redox reaction, it can be reduced from a blue resazurin without fluorescence to a pink fluorescent substance, resorufin, which can be measured and quantified with relative fluorescence unit (RFU) of fluorophotometer (Ex=530-570 nm, Em=590-620 nm). At present, resazurin is widely used for determining the viability of bacteria, cells, etc. and the enzyme activity detection of oxidoreductase. We detected the decrease of cofactor NADPH to determine the inhibitory activity of a compound against IDHm and detected the generation of cofactor NADPH to determine the inhibitory activity of a compound against IDH WT.
(§2) The compound was pre-incubated with IDHm and NADPH, and then the reaction was initiated by adding α-KG and performed for certain time under a linear condition.
(§3) Then, Diaphorase (lipoamide dehydrogenase) and the corresponding substrate Resazurin were added thereto for detection. Lipoamide dehydrogenase terminated the IDH2m reaction by decreasing the available cofactor NADPH, which oxidized NADPH to NADP, and reduced resazurin to high fluorescent resorufin. The amount of the remaining cofactor NADPH after a specific reaction time was quantified via an easily detectable fluorophore.
(§4) The specific operation was as follows: 2.5 μl of the compound diluted in a 3-fold gradient was added to a 384-well plate, followed by adding 5 μL of the reaction buffer (20 mM Tris-HCl, pH 7.5; 150 mM NaCl; 10 mM MgCl2; 0.4 mg/mL BSA (Bovine Serum Albumin) and 2 mM DTT (dithiothreitol)) containing 40 nM IDH1 (R132H/R132C) and 20 μM NADPH. Then, the above test mixture was incubated at 23° C. for 16 hours, and then 2.5 μL of the reaction buffer containing 4 mM α-KG was added to initiate the reaction. After they were incubated for 60 minutes at room temperature, 5 μL of the termination mixture (0.4 U/ml Diaphorase and 20 μM Resazurin) formulated with the reaction buffer was added to convert resazurin to resorufin, so as to measure the amount of the remaining NADPH. After incubating at 23° C. for 10 minutes, fluorescence values were determined through Flexstation 3 at Ex535/Em595. The enzyme activity of each compound was respectively determined at 12 concentrations, and the data were calculated using the software GraFit6.0 (Erithacus Software) to obtain the IC50 value of each compound.

[2] = biological target: T1, IDH1 (R132H) (Homo sapiens (Human), UniProt O75874, R132H); assay: as above; assay type: biochemical; settings: 40 nM enzyme, 20 μM NADPH, incubated at 23° C. for 16 hours before α-KG; 12 concentrations
Excerpt: as §1, §2, §3, §4

[3] = biological target: T1, IDH1 (R132H); assay: Binding mode determination, free compound by LC-MS/MS; settings: incubated with IDH1 (R132H), FIG. 1
Procedure: The compounds were incubated with IDH1 (R132H), and then divided into N parts. The reaction was terminated by adding acetonitrile at different time points, and the organic phase was separated by centrifugation. The resulting samples were stored at −80° C. until analysis, and the concentration of the compounds in free from were analyzed by LC-MS/MS, mobile phase A: water (0.1% of formic acid), B: acetonitrile (0.1% of formic acid), strong needle wash solution: acetonitrile:water=9:1, weak needle wash solution: acetonitrile:water=1:9.

[4] = Pharmacokinetic test; assay type: in vivo; settings: male SD rats, oral 5 mg/kg
Procedure: Male SD rats were from Beijing Vital River Laboratory Animal Technology Co., Ltd., and divided into groups (3 rats per group). The rats were intragastically administered with the test sample suspension (5 mg/kg) via a single peroral administration, respectively. The animals were fasted overnight before this study. The fasting time period was from 10 hours before administration to 4 hours after administration. Blood samples were taken at 0.25, 0.5, 1, 2, 4, 6, 8 and 24 hours after administration. After the rats were anesthetized with isoflurane using an anesthesia machine for small animal, and then 0.3 mL whole blood samples were taken from the fundus venous plexus. The blood samples were placed in heparin anticoagulant tubes, and centrifuged for 5 min at 4° C. and 4000 rpm. The plasma was transferred to centrifuge tubes, and stored at −80° C. until analysis. The samples in plasma were extracted through protein precipitation. The liquid extract was analyzed by LC-MS/MS, mobile phase A: water (0.1% of formic acid), B: acetonitrile (0.1% of formic acid), strong needle wash solution: acetonitrile:water=9:1, weak needle wash solution: acetonitrile:water=1:9.

[5] = rat, 0.5% MC, 0.2% Tween80, plasma

T1 sequence (O75874 whole entry R132H): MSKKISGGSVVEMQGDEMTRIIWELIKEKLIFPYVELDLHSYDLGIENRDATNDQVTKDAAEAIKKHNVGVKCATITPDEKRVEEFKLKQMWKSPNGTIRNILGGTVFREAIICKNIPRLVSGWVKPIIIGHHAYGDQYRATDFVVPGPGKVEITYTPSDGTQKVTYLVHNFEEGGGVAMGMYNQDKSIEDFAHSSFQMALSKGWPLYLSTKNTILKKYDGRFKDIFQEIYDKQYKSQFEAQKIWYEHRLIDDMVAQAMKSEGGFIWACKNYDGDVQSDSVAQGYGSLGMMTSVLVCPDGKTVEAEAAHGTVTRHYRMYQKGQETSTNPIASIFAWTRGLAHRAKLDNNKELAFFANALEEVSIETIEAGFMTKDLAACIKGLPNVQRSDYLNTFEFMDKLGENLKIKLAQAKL
Sequence of IDH1 (R132C) (O75874 whole entry R132C): as the sequence (O75874 whole entry R132H) above, with H132C counted along it

| Structure (SMILES) | IC50 [2] [nM] | other results |
| --- | --- | --- |
| O=C(NC1CC(F)(F)C1)C(c1ccccc1Cl)N(C(=O)CNS(=O)(=O)N1CC1)c1cccc(F)c1 (stereo not drawn) [Example 10, 2-(aziridine-1-sulfonylamino)-N-(1-(2-chlorophenyl)-2-((3,3-difluorocyclobutyl)amino)-2-oxoethyl)-N-(3-fluorophenyl)acetamide] | < 20 | binding of the compound to the enzyme over time [3]: increased over time; drug concentration in vivo over time ([4]; PK curve FIG. 2): decreased drug concentration in vivo over time; Cmax [4, 5]: 508 ng/mL; Tmax [4, 5]: 15 min; half-life [4, 5]: 90 min; AUC(0-inf) ([4]; rat, 0.5% MC, 0.2% Tween80, plasma, read-out: AUCINF—obs): 794 ng·h/mL |
| CN(CC(=O)N(c1cccc(F)c1)C(C(=O)NC1CCCCC1)c1ccccc1Cl)S(=O)(=O)N1CC1 (stereo not drawn) [Example 12, 2-(2-chlorophenyl)-N-cyclohexyl-2-(N-(3-fluorophenyl)-2-(N-methylaziridine-1-sulfonylamino)acetamido)acetamide] | < 20 | – |
| O=C(NC1CCCCC1)C(c1ccccc1Cl)N(C(=O)CNS(=O)(=O)N1CC1)c1cncc(F)c1 (stereo not drawn) [Example 17, 2-(aziridine-1-sulfonylamino)-N-(1-(2-chlorophenyl)-2-(cyclohexylamino)-2-oxoethyl)-N-(5-fluoropyridin-3-yl)acetamide] | < 20 | – |
| C[C@@H](NS(=O)(=O)N1CC1)C(=O)N(c1cccc(F)c1)[C@H](C(=O)NC1CCCCC1)c1ccccc1Cl [Example 4, (R)-2-(aziridine-1-sulfonylamino)-N—((S)-1-(2-chlorophenyl)-2-(cyclohexylamino)-2-oxoethyl)-N-(3-fluorophenyl)propanamide] | < 100 | – |
| O=C(NC1CCCCC1)[C@H](c1ccccc1Cl)N(C(=O)[C@@H]1CCCN1S(=O)(=O)N1CC1)c1cccc(F)c1 [Example 19, (S)-1-(aziridin-1-ylsulfonyl)-N—((S)-1-(2-chlorophenyl)-2-(cyclohexylamino)-2-oxoethyl)-N-(3-fluorophenyl)pyrrolidine-2-carboxamide] | < 100 | – |
| O=C(NC1CC(F)(F)C1)C(c1ccccc1Cl)N(C(=O)CCS(=O)(=O)N1CC1)c1cccc(F)c1 (stereo not drawn) [Example 14, 3-(aziridin-1-ylsulfonyl)-N-(1-(2-chlorophenyl)-2-((3,3-difluorocyclobutyl)amino)-2-oxoethyl)-N-(3-fluorophenyl)propanamide] | < 20 | – |

Now from value to compound, other results behind:

| IC50 [2] [nM] | Structure (SMILES) | other results |
| --- | --- | --- |
| < 20 | O=C(NC1CC(F)(F)C1)[C@H](c1ccccc1Cl)N(C(=O)CNS(=O)(=O)N1CC1)c1cccc(F)c1 [Example 25, (S)-2-(aziridine-1-sulfonylamino)-N-(1-(2-chlorophenyl)-2-((3,3-difluorocyclobutyl)amino)-2-oxoethyl)-N-(3-fluorophenyl)acetamide] | IC50 [1]: < 20 nM |
| < 20 | C[C@H]1CN1S(=O)(=O)NCC(=O)N(c1cccc(F)c1)C(C(=O)NC1CCCCC1)c1ccccc1Cl (stereo partly drawn) [Example 32, 2-(2-chlorophenyl)-N-cyclohexyl-2-(N-(3-fluorophenyl)-2-(((S)-2-methylaziridine)-1-sulfonylamino)acetamido)acetamide] | – |
| < 20 | O=C(NC1CCCCC1)C(c1ccccc1Cl)N(C(=O)CCCCS(=O)(=O)N1CC1)c1cccc(F)c1 (stereo not drawn) [Example 20, 5-(aziridin-1-ylsulfonyl)-N-(1-(2-chlorophenyl)-2-(cyclohexylamino)-2-oxoethyl)-N-(3-fluorophenyl)pentanamide] | – |
| < 1000 | O=C(NC1CC(F)(F)C1)[C@@H](c1ccccc1Cl)N(C(=O)[C@@H]1CCN(S(=O)(=O)N2CC2)C1)c1cccc(F)c1 [Example 37, (R)-1-(aziridin-1-ylsulfonyl)-N—((R)-1-(2-chlorophenyl)-2-((3,3-difluorocyclobutyl)amino)-2-oxoethyl)-N-(3-fluorophenyl)pyrrolidine-3-carboxamide] | – |
| < 100 | O=C(NC1CC(F)(F)C1)[C@@H](c1ccccc1Cl)N(C(=O)CNS(=O)(=O)N1CC1)c1cccc(F)c1 [Example 26, (R)-2-(aziridine-1-sulfonylamino)-N-(1-(2-chlorophenyl)-2-((3,3-difluorocyclobutyl)amino)-2-oxoethyl)-N-(3-fluorophenyl)acetamide] | – |
